The source of these data is patent US7049321B2, “Methods and pharmaceutical compositions for treatment of central and peripheral nervous system disorders and compounds useful therefor” (Israel Institute for Biological Research, priority 2002, dated 2006).

A value given as a limit tells only on which side of the number the result lay.

Series [1] is described as follows: in vivo. Conditions: mouse.
Description: This calculation was based on the brain weight (2 gr) vs. total plasma volume (14 ml).
Series [2] deals with C57BL/10SnJ (B10) mice. In words: Morris water maze in small hippocampus mice. Format: in vivo. As to the method:
C57BL/10SnJ (B10) mice were selected due to their small hippocampi and decreased number of hippocampal pyramidal neurons; the cell loss seemed to be associated with poor spatial learning.
Each group of mice was randomly divided into 7 treatment groups (n=12-14/group). […] All tested compounds and saline were administered once a day for 4 days before starting the behavioral testing, and then for the duration of the 5-day experiment, 30 minutes before testing.
Training: Each mouse was trained for four consecutive days, four trials (one block) per day, in which the platform position remained constant and was located in the center of the southeast quadrant of the pool. Within each block of four trials, each mouse started at each of the starting locations, but the sequence of locations was randomly selected. A trial consisted of placing a mouse by hand into the water facing the wall of the pool at one of four starting locations, north, south, east or west, around the pool's perimeter. Escape latency (the time to find the platform), path length (the distance traveled by the mouse) and speed (the swimming rate of the mouse) were recorded on each trial by the monitoring system.
For each mouse, the path length, escape latency, and swimming speed of the four trials on each of the 4 training days were grouped into blocks (one block for each day). […] Specific comparisons were performed, using the simple main effects contrasts acalysis, which is specifically suited for testing significant interactions.
Transfer test. During trial No. 17, on the fourth day, the platform was entirely removed from the pool (a probe trial). In this trial, the mouse was placed into the water for a limited period (30 s), and its spatial bias was measured by recording the relative distribution of escape latency and path length over the four quadrants of the pool.
Reversal test. During trials 18–21, on the fifth day, the platform position was changed to the northwest quadrant, opposite to the training quadrant. Thus, during reversal learning, the platform location was moved relative to the configuration of objects within the room, but the pool occupied the same place within the room throughout the entire experiment. Testing of the rats and measures taken were the same as in training.
For each mouse, the escape latency, path length and swimming speed of the reversal test (trials No. 18–21) were grouped into one block.

For series [3], the system named is mice with closed head injury. The experiment in a line: Closed head injury in mice, neurological severity score. The series is classed as in vivo. As for the experimental part: Closed head injury (CHI) was induced in mice as described in Chen et al, J Neurotrauma, 15: 231–237, 1998. Neurological severity scores (NSS) were assessed using a battery of 10 parameters (10=worst outcome, 0=normal function). The compounds tested (1 mg compound/kg body weight) vs. placebo-treated animals were injected ip 5 min after CHI vs. placebo-treated animals. Treated mice were evaluated at 1 h, to determine the severity of injury, and at 24 and 48 h to determine recovery. The NSS was as follows: 1. […] 2.

In series [4] the test system is rat primary hippocampal cell cultures. The experiment in a line: APPs secretion in rat primary hippocampal cell cultures. The settings on record: 100 μm; culture not given. The series is classed as cell-based.
The test system of series [5] is aged rats. In words: Morris water maze in aged rats. The series is classed as in vivo, Sprague-Dawley rats. From the text:
Old (22–24 months old) and young (three months old) Sprague-Dawley rats had been tested in the MWM.

The nature of series [6]: Metabolic stability, dog liver microsomes. Conditions: read-out: Metabolic Stability T1/2. The series is classed as in vitro ADME. As to the method:
(§1) The metabolic stability of AF292 was evaluated by monitoring its disappearance while incubated with rat, […], monkey, and human hepatic microsomes. Testosterone, and propranolol were run as assay controls.
For orientation: Liver microsomes are vesicles of endoplasmic reticulum, rich in cytochrome P450 enzymes.

Series [7] in a line: Metabolic stability, human liver microsomes. The series is classed as in vitro ADME. The settings on record: read-out: Metabolic Stability T1/2. As for the experimental part:
as §1

Series [8] can be described thus: Metabolic stability, monkey liver microsomes. Format: in vitro ADME. Conditions: read-out: Metabolic Stability T1/2. As to the method:
as §1

Series [9] can be described thus: Plasma levels of AF267B and AF292 in dogs after AF267B administration (toxicokinetic, LC-MS). Format: in vivo, Beagle dogs. An excerpt:
Internal Standard (AF261): 2-Methyl-8-methyl-1-thia-4,8-diaza-spiro[4.5]decan-3-one; MW 200. The analytical plasma samples originate from the in-life part of this study.

In series [10] the test system is tau proteins. The experiment in a line: tau phosphorylation, AT8 immunoblot. The series is classed as cell-based. Conditions: 100 μM; to the control level. An excerpt:
Following the experimental design of Sadot et al., J. Neurochem. […] By linking an M1 agonist to an antioxidant moiety tau phophorylation may be decreased, providing a new therapeutic strategy in a variety of CNS disease states due to combined damage due to oxidative stress and tau hyperphosphorylation.
Background: In western blotting, separated proteins are transferred to a membrane and probed.

Series [11] is described as follows: Pharmacokinetic study in dogs. The series is classed as in vivo. Conditions: beagle, dog, plasma, po; Dogs, 5 mg/kg. From the text: The results of the PK profile of AF292 in rats and Beagle dogs (overnight fasting; drug administered in water solution; gavage) are listed in Table 1.
The target in series [12] is T1, M1 mAChR (Homo sapiens, UniProt P11229).
T1 construct: expressed in transfected cells
T1 sequence (P11229 whole entry): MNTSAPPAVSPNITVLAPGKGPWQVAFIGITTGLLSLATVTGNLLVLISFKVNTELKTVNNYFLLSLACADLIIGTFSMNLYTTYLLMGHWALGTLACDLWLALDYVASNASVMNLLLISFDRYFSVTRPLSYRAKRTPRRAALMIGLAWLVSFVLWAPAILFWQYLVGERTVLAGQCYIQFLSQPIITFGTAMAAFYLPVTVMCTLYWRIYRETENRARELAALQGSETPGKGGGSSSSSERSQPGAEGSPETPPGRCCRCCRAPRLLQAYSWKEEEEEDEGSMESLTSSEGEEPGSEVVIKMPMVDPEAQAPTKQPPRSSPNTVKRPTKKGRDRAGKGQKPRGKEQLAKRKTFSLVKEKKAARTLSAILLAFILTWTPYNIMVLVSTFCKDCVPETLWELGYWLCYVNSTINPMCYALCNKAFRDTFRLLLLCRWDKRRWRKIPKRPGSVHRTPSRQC
The experiment in a line: Arachidonic acid (AA) release, M1. The series is classed as cell-based.

Series [13] is described as follows: Protein binding, PBS. The series is classed as in vitro ADME. Conditions: 10 μM. As to the method: Protein binding studies were carried out in human plasma, α1-glycoprotein, human serum albumin (HSA), and Dulbecco's Phosphate Buffered Saline (PBS). AF292 was added to a final concentration of 10 μM. […] (μM) and in human […] (AGP), (see Table 1).

The nature of series [14]: CNS safety: general observation and Irwin test in rats. The series is classed as in vivo, rat. Conditions: 1, 10, 30, 60, 100 mg/kg, p.o. As for the experimental part: AF292 was evaluated in rodents for possible effects on general behavior and other CNS related pharmacological effects. […] No behavioral or physical signs were observed 24 hours after administration. All rats were retained for 14 days, and throughout this retention period all rats appeared normal.

Setting [15] is: both sexes, beagle, dog, plasma, po.

Regarding `CC1=NCC2(CCN(C)CC2)S1` [AF150(S), 2,8-Dimethyl-1-thia-3,8-diaza-spiro[4.5]dec-2-ene], the Tmax (in general, the time at which the peak concentration occurs) in series [1] was 1 to 10 min. Further, the “Training, escape latency” value in [2] (0.5 and 1 mg/kg i.p. (rivastigmine, nicotine 1 mg/kg)) was “positively affected”. In addition, the “Training, path length” value in series [2] (AF150(S) both doses, AF267B the higher dose) is on record as “positively affected”. In series [2] (mouse, in vivo), the “Reversal test, escape latency” value was “improved the escape latency”; the “Training, swimming speed” value is “enhancing effect of AF150(S) was equal in both doses”; the “Transfer test, spatial bias” value was “complete spatial bias”. In addition, the NSS in [3] (1 mg/kg ip 5 min after CHI, 1 h) is listed as 8.00+/−0.21. In addition, in series [3] (1 mg/kg ip, 24 h), the NSS is recorded as 4.30+/−0.26. Further, in [3] (1 mg/kg ip, 48 h), the NSS is 2.90+/−0.3. For the same compound, the “APPs secretion, fold over control (agonists vs CCh)” value in [4] amounted to 2.8 fold.
As for `CC[C@@H]1SC2(CCNCC2)NC1=O` [AF292, (S)-2-Ethyl-1-thia-4,8-diaza-spiro[4.5]decan-3-one], the Reversal learning entry in series [5] (AF267B 1 mg/kg, AF292 1 and 0.5 mg/kg, po) was “did not reach significance”. Further, the “Probe trial, memory” value in series [5] (both doses (1 and 0.5 mg/kg, po)) is reported as “tendency for partial spatial bias”. Moreover, the half-life was over 100 min in series [6]; over 100 min in series [7]; 74 min in [8]; 540 to 1200 min in series [9] (both sexes, beagle, dog, plasma, po, 6 mg/kg, read-out: plasma half life); 636 min in series [9] (female, beagle, dog, plasma, po, females, read-out: T1/2 (converted)); 378 min in series [9] (male, beagle, dog, plasma, po, read-out: Elimination half life, Mean T1/2). The compound also showed a half-life in [11] of 122 min. Besides, the “Elimination half life, Mean T1/2” value in [9] (F) is recorded as “Mean T1/2 (F) = 10.6 +/− 7.6 h”. The AUC(0-t) (commonly exposure summed from dosing to a finite time, without extrapolation to infinity) in [9] (setting [15]) fell in the range of 616 to 2450 ng·h/mL. The Cmax (commonly the maximum level reached in the sampled fluid or tissue) in series [9] (setting [15]) is 136 to 555 ng/mL; in series [11], 1190 ng/mL. For the same compound, the Tmax was 3 h in series [9] (setting [15]) and 48 min in series [11]. Further, in series [9] (dog, in vivo), the “Cmax vs. the Cmax of AF267B” value is recorded as 50–90%. The total exposure AUC(0-inf) (as a rule, total exposure, with the tail of the curve extrapolated) in series [9] (female, beagle, dog, plasma, po, 6 mg/kg, F (1x), AF267B 1.5, 3, 6 mg/kg p.o. single) is 3900 to 4840 ng·h/mL; in series [9] (female, beagle, dog, plasma, po, 6 mg/kg, F(13w), AF267B 1.5, 3, 6 mg/kg p.o.) it was 1870 to 12700 ng·h/mL; in series [9] (male, beagle, dog, plasma, po, 6 mg/kg, M (1x), AF267B 1.5, 3, 6 mg/kg p.o. single), 1140 to 10900 ng·h/mL; in series [9] (male, beagle, dog, plasma, po, 6 mg/kg, M(13w), AF267B 1.5, 3, 6 mg/kg p.o.) it was 1610 to 4170 ng·h/mL; in series [11], 4650 ng·h/mL. Further, the MRT (in general, a mean duration of stay, worked out from the concentration-time curve) in [9] (female, beagle, dog, plasma, po, F (1x)) is 8.7 to 18.7 h; in [9] (male, beagle, dog, plasma, po, M (1x)), 5 to 27.3 h; in series [11], 4.85 h. For the same compound, the MRT at 13 weeks in series [9] (female, beagle, dog, plasma, po, F(13w)) is 5.1 to 33.7 h; in series [9] (male, beagle, dog, plasma, po, M(13w)), 5 to 7.8 h. In series [10], the “tau phosphorylation (AT8)” value is listed as “induce dephosphorylation of tau proteins”. Further, the “AA release vs. CCh, M1 mAChR” value in series [12] was over 88%. Besides, the “Protein Binding” value in series [13] was 0% and PBS = 0%. Moreover, the “Physical or behavioral signs (Irwin test)” value in series [14] is given as “No significant physical or behavioral signs”.
